Test results taken from patent US7538233B2, “Coumarins as iNOS inhibitors” (Aventis Pharmaceuticals Inc., priority 2003, dated 2009).

Assays:
Assay type in all cases: biochemical
Rat NOS-1 (nNOS) = molecular target: T1, Rat NOS-1 (nNOS) (Rattus norvegicus, UniProt P29476); assay: Rat NOS-1 (nNOS) assay ([3H]-arginine to [3H]-citrulline conversion); conditions: recombinant rat nNOS, 20 min at 37° C., 2 μM L-[3H]arginine; * mean of 3 determinations
T1 construct: purchased Cayman Chemical 60870; host or cells: Baculovirus / Sf9 cells
T1 sequence (P29476 whole entry): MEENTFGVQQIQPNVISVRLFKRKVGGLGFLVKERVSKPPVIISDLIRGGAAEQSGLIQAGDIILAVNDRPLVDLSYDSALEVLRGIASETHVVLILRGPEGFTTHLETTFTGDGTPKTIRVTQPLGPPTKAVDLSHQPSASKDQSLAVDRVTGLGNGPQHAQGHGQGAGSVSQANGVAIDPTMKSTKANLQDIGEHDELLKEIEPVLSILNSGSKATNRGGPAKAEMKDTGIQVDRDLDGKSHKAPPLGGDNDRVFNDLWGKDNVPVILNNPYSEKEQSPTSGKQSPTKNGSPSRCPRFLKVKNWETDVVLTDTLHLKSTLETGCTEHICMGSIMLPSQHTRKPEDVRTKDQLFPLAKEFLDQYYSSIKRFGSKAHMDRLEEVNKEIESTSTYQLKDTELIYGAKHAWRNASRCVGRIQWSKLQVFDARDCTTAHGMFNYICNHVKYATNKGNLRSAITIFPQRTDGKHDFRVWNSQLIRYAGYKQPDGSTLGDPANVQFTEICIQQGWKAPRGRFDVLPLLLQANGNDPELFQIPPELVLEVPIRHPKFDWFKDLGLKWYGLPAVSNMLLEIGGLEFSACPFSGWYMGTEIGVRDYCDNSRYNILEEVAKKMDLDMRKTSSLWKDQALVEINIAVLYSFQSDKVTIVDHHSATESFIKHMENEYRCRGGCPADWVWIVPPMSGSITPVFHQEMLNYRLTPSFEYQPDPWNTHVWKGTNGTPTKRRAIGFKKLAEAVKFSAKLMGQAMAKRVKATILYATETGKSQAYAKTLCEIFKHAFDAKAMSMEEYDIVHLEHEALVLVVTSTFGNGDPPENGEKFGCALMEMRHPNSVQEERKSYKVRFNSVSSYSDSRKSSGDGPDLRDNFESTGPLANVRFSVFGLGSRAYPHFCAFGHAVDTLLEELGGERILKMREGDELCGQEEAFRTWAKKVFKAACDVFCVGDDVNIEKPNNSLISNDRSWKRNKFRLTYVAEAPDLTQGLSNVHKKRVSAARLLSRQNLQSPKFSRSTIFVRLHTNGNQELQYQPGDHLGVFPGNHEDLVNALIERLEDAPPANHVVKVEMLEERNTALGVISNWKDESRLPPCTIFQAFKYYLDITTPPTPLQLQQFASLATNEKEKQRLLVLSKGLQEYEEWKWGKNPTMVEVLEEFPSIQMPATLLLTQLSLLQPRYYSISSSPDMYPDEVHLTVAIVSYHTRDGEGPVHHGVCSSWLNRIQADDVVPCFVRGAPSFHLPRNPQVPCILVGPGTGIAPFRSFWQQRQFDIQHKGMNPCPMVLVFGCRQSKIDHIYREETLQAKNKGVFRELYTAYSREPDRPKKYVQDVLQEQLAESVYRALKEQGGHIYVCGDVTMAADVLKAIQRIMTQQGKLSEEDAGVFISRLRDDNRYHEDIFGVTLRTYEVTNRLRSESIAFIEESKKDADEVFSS

Human NOS-2 = Human NOS-2 (Homo sapiens, UniProt P35228); assay: Human NOS-2 assay ([3H]-arginine to [3H]-citrulline conversion); conditions: 60 min at 37° C., 2.5 μM L-[3H]arginine; * mean of 3, ** mean of 2 determinations; read-out: Human iNOS, IC50
Chain of Human NOS-2 (P35228 whole entry): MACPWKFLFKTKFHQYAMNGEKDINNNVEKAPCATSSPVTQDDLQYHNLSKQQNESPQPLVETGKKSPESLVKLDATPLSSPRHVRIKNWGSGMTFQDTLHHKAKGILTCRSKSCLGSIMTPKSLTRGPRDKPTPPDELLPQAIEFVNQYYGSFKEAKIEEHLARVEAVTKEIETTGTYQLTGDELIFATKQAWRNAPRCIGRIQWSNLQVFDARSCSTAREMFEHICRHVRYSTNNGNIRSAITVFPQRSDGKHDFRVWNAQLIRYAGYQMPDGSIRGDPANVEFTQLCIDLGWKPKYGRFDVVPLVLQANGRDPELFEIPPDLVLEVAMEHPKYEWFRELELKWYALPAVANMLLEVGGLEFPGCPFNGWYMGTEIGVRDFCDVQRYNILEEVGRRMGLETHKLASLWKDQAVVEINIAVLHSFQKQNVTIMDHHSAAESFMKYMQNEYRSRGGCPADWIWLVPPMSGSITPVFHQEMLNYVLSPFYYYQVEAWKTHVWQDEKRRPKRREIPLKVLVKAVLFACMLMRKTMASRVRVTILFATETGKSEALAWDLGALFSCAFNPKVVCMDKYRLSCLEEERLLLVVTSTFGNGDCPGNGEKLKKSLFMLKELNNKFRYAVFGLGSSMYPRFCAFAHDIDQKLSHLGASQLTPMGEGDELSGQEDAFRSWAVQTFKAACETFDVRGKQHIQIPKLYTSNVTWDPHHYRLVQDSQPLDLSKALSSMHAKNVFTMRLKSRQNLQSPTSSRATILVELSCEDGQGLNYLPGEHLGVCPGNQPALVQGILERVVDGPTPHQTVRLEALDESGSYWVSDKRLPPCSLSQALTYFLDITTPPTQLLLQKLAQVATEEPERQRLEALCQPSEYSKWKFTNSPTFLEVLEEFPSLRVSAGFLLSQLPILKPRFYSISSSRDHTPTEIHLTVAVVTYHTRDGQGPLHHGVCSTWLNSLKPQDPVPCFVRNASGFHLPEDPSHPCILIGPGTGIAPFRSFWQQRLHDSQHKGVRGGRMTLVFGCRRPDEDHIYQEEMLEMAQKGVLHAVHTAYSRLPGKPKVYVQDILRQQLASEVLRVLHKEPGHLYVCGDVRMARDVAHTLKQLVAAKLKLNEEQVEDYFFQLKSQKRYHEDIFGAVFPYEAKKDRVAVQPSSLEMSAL

Murine NOS-2 (iNOS) = molecular target: T2, Murine NOS-2 (iNOS) (Mus musculus, UniProt P29477); assay: Murine NOS-2 (iNOS) assay ([3H]-arginine to [3H]-citrulline conversion); conditions: recombinant murine NOS-2, 20 min at 37° C., 10 uM L-[3H]arginine; ** mean of 2 determinations
T2 construct: purchased Cayman Chemical 60864; host or cells: E. coli
T2 sequence (P29477 whole entry): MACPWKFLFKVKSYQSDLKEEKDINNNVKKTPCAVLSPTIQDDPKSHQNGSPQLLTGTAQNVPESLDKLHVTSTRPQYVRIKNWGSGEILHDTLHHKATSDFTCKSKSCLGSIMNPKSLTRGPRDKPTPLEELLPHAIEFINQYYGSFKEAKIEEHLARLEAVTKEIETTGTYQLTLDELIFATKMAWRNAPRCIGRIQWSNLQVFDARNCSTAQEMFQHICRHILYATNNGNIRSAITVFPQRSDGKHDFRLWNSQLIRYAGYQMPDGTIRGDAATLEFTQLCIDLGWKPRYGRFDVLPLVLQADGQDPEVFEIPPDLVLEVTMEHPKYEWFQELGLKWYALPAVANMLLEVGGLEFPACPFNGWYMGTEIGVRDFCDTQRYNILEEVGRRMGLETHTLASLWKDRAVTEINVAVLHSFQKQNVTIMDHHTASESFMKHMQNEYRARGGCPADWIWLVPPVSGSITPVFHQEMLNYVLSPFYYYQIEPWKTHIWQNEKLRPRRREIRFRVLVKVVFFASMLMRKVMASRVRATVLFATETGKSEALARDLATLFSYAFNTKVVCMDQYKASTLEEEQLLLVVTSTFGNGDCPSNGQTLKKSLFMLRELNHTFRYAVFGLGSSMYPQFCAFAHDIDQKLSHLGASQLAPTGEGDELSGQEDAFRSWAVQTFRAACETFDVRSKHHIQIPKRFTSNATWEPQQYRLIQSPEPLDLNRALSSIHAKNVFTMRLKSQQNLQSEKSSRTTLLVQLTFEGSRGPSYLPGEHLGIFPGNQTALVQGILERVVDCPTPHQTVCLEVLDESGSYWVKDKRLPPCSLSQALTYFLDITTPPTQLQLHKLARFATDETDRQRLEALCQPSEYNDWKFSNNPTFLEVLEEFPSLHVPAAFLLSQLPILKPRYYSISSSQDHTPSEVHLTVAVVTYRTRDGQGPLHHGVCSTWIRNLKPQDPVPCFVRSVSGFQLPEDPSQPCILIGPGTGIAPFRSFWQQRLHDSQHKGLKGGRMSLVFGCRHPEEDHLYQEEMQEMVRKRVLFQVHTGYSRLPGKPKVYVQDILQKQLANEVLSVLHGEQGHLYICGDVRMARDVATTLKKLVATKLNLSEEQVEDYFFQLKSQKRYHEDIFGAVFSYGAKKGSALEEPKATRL

Bovine NOS-3 (eNOS) = molecular target: T3, Bovine NOS-3 (eNOS) (Bos taurus, UniProt P29473); assay: Bovine NOS-3 (eNOS) assay ([3H]-arginine to [3H]-citrulline conversion); conditions: recombinant bovine NOS-3, 120 min, 10 μM L-[3H]arginine; ** mean of 2 determinations
T3 construct: purchased Cayman Chemical 60880; host or cells: Baculovirus / Sf9 cells
T3 sequence (P29473 2-1205): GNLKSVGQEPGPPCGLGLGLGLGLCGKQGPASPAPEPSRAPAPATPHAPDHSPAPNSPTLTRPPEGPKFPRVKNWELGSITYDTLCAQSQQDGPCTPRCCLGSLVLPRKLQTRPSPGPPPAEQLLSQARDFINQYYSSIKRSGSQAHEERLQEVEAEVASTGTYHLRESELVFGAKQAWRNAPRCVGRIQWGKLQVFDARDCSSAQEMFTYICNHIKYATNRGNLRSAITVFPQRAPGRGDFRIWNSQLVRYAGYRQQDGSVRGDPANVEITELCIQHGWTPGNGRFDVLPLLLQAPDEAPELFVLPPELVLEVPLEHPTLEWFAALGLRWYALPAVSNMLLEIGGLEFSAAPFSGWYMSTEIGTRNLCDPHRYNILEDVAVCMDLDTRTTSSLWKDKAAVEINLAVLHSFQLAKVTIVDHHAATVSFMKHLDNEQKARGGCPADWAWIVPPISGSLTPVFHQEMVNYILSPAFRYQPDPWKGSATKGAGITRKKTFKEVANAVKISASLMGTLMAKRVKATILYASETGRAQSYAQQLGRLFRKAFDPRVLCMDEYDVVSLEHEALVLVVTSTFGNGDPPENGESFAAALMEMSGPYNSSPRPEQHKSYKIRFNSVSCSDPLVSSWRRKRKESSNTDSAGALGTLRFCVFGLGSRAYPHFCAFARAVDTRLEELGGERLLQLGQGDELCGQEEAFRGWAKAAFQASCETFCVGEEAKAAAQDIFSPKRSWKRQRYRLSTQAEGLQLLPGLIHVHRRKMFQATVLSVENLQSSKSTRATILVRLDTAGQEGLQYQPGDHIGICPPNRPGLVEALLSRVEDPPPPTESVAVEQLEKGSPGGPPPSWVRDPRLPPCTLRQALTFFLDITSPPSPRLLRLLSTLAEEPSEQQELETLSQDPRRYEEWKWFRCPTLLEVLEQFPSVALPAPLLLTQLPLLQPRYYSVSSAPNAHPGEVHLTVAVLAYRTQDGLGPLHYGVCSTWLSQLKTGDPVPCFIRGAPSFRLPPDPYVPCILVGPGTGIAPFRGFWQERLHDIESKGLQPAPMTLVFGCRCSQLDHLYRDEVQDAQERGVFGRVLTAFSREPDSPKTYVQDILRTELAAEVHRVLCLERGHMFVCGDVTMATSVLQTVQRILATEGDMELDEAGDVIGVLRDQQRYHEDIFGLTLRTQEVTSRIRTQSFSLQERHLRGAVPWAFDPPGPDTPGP

Row | Compound | IC50 (Rat NOS-1 (nNOS)) | IC50 (Human NOS-2) | IC50 (Murine NOS-2 (iNOS)) | IC50 (Bovine NOS-3 (eNOS))
1 | O=c1cc(OCCC2CCCCN2)c2cc(Cl)ccc2o1 (stereo not drawn) [Example 34, 6-Chloro-4-(2-piperidin-2-yl-ethoxy)-1-benzopyran-2-one] | 1000 nM | 2000 nM | 4200 nM | > 10000 nM
2 | NCCCCOc1cc(=O)oc2ccc(Cl)cc12 [Example 31, 4-(4-Amino-butoxy)-6-chloro-1-benzopyran-2-one] | > 10000 nM | 2000 nM | 1000 nM | > 10000 nM
3 | NCCCOc1cc(=O)oc2ccc(Cl)cc12 [Example 1, 6-Chloro-4-(3-aminopropoxy)-1-benzopyran-2-one] | 560 nM | 94 nM | 60 nM | > 10000 nM
4 | NCCCCc1cc(=O)oc2ccc(Cl)cc12 [Example 57, 4-(4-Aminobutyl)6-chloro-1-benzopyran-2-one] |  | 3600 nM |  | 
5 | CNCCCOc1cc(=O)oc2ccc(Cl)cc12 [Example 3, 6-Chloro-4-(3-methylamino-propoxy)-1-benzopyran-2-one] | 530 nM | 110 nM | 250 nM | > 10000 nM
6 | NCCCCCOc1cc(=O)oc2ccc(Cl)cc12 [Example 32, 4-(5-Amino-pentyloxy)-6-chloro-1-benzopyran-2-one] |  | 1300 nM |  | 
7 | CN(C)CCCOc1cc(=O)oc2ccc(Cl)cc12 [Example 22, 6-Chloro-4-(3-dimethylamino-propoxy)-1-benzopyran-2-one] | 8000 nM | 4100 nM | 1200 nM | > 10000 nM
8 | Cc1ccc2oc(=O)cc(OCCCN(C)C)c2c1 [Example 23, 4-(3-Dimethylamino-propoxy)-6-methyl-1-benzopyran-2-one] | > 10000 nM | 4700 nM | 3000 nM | > 10000 nM
9 | O=c1cc(OCC2CCCNC2)c2cc(Cl)ccc2o1 (stereo not drawn) [Example 33, 6-Chloro-4-(piperidin-3-ylmethoxy)-1-benzopyran-2-one] |  |  | 1500 nM | 
10 | N=C(N)NCCCOc1cc(=O)oc2ccc(Cl)cc12 [Example 28, N-[3-(6-Chloro-2-oxo-2H-1-benzopyran-4-yloxy)-propyl]guanidine] | 500 nM | 510 nM | 390 nM | > 10000 nM

Results, then the molecule that gave them:

Row | IC50 (Rat NOS-1 (nNOS)) | IC50 (Human NOS-2) | IC50 (Murine NOS-2 (iNOS)) | IC50 (Bovine NOS-3 (eNOS)) | Compound
11 | 1600 nM | 1100 nM | 440 nM | > 10000 nM | NCCCOc1cc(=O)oc2ccc(F)cc12 [Example 12, 4-(3-Amino-propoxy)-6-fluoro-1-benzopyran-2-one]
12 | 360 nM | 100 nM | 140 nM | > 10000 nM | NCCCOc1cc(=O)oc2ccc(Br)cc12 [Example 11, 4-(3-Amino-propoxy)-6-bromo-1-benzopyran-2-one]
13 | 9100 nM | 7600 nM | 7400 nM | > 10000 nM | NCCCOc1cc(=O)oc2ccccc12 [Example 19, 4-(3-Amino-propoxy)-1-benzopyran-2-one]
14 | > 10000 nM | 4000 nM | > 10000 nM | > 10000 nM | CN(C)CCCOc1cc(=O)oc2ccccc12 [Example 2, 4-(3-Dimethylamino-propoxy)-1-benzopyran-2-one]
15 | 650 nM | 300 nM | 300 nM | > 10000 nM | Cc1ccc2oc(=O)cc(OCCCN)c2c1 [Example 14, 4-(3-Amino-propoxy)-6-methyl-1-benzopyran-2-one]
